In patent US10329283B2, “G protein-coupled receptor kinase inhibitors and methods for use of the same” (THE REGENTS OF THE UNIVERSITY OF MICHIGAN, priority 2015, dated 2019):
Structures can show the parent of a compound that is named as a salt.

Columns and labels:
Type in all cases: biochemical
Details in all cases: 50 nM GRK, 5 μM ATP, 500 nM bROS or tubulin, 5 min
GRK1 = molecular target: T1, GRK1 (Bos taurus, UniProt P28327); assay: GRK1 kinetic assay for inhibition of GRKs (phosphorimaging)
T1 sequence (P28327 1-535 limits assumed): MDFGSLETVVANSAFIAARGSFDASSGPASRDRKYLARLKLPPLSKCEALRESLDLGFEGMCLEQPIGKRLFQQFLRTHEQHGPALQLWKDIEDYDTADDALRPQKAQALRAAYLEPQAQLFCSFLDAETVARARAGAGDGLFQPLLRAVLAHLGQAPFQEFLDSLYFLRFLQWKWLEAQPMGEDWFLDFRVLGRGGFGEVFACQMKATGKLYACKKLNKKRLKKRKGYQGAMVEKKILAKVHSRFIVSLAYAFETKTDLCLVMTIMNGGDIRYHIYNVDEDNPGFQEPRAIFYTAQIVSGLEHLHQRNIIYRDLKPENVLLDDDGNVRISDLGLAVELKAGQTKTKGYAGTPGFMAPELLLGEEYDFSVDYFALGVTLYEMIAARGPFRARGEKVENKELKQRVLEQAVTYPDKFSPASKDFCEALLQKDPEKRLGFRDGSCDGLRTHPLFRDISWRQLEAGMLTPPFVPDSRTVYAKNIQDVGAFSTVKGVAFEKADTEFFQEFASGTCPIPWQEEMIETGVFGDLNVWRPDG
Protocol: (§1) The low salt concentration and DDM were used to maximize GRK activity and disrupt small molecule aggregates from forming, respectively. […] Data was analyzed and inhibition curves were fit via GraphPad Prism.

GRK5 = GRK5 (Homo sapiens, UniProt P34947); assay: GRK5 kinetic assay for inhibition of GRKs (phosphorimaging)
Protocol: as §1

GRK2 = molecular target: T2, GRK2 (Homo sapiens, UniProt P25098); assay: GRK2 kinetic assay for inhibition of GRKs (phosphorimaging)
T2 sequence (P25098 1-689): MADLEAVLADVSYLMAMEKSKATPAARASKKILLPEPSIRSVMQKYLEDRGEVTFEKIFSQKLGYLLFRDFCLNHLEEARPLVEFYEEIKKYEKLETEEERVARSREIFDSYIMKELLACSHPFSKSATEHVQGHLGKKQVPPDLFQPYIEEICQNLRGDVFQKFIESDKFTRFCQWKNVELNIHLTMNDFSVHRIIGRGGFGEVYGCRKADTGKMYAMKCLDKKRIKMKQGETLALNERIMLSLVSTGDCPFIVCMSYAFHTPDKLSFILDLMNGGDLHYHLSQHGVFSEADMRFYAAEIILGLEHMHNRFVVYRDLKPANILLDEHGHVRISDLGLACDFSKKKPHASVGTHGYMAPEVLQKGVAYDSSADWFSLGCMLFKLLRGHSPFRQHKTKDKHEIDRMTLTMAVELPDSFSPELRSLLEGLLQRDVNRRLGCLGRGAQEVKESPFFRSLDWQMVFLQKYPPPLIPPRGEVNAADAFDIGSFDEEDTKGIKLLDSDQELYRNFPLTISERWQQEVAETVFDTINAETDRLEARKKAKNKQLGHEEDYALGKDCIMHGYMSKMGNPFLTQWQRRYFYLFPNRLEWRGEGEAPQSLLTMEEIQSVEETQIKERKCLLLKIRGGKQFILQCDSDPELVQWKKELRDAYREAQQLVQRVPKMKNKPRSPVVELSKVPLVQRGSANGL
Protocol: as §1

Sequence of GRK5 (P34947 whole entry, species assumed): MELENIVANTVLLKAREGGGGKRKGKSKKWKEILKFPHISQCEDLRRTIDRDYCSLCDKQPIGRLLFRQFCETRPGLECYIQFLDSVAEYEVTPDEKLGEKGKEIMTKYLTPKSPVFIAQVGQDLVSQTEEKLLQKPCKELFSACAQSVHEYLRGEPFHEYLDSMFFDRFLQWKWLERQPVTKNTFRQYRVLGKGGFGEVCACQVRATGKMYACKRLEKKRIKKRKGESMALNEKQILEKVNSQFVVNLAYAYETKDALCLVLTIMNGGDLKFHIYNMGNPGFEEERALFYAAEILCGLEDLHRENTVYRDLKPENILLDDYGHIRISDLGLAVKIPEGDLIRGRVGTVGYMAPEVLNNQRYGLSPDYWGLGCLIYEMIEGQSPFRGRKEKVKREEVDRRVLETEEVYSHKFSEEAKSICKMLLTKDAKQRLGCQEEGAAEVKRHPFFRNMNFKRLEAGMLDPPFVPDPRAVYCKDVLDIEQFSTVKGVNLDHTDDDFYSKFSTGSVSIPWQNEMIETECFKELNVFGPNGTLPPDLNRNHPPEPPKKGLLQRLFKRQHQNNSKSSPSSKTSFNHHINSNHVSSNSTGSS

SMILES | IC50 (GRK1) | IC50 (GRK5) | IC50 (GRK2)
COc1ccccc1CNC(=O)Cc1cc([C@@H]2CCNC[C@H]2COc2ccc3c(c2)OCO3)ccc1F [Example E06, 2-(5-((3S,4R)-3-((benzo[d][1,3]dioxol-5-yloxy)methyl)piperidin-4-yl)-2-fluorophenyl)-N-(2-methoxybenzyl)acetamide hydrochloride] | – | > 100 µM | 0.64 µM
O=C(NCCc1cn[nH]c1)c1cc([C@@H]2CCNC[C@H]2COc2ccc3c(c2)OCO3)ccc1F [Example E08, N-(2-(1H-pyrazol-4-yl)ethyl)-5-((3S,4R)-3-((benzo[d][1,3]dioxol-5-yloxy)methyl)piperidin-4-yl)-2-fluorobenzamide hydrochloride] | – | > 100 µM | 1.75 µM
COc1ccccc1CNC(=O)c1cc([C@@H]2CCNC[C@H]2COc2ccc3c(c2)OCO3)ccc1F [Example E09, 5-((3S,4R)-3-((benzo[d][1,3]dioxol-5-yloxy)methyl)piperidin-4-yl)-2-fluoro-N-(2-methoxybenzyl)benzamide hydrochloride] | – | > 100 µM | 48.5 µM
COc1cccc(OC)c1CNC(=O)c1cc([C@@H]2CCNC[C@H]2COc2ccc3c(c2)OCO3)ccc1F [Example E15, 5-((3S,4R)-3-((benzo[d][1,3]dioxol-5-yloxy)methyl)piperidin-4-yl)-N-(2,6-dimethoxybenzyl)-2-fluorobenzamide hydrochloride] | 22 µM | > 100 µM | 1.39 µM
O=C(NCCc1ccccc1)c1cc([C@@H]2CCNC[C@H]2COc2ccc3c(c2)OCO3)ccc1F [Example E20, 5-((3S,4R)-3-((benzo[d][1,3]dioxol-5-yloxy)methyl)piperidin-4-yl)-2-fluoro-N-phenethylbenzamide] | – | > 100 µM | –
O=C(NCc1ccncc1)c1cc([C@@H]2CCNC[C@H]2COc2ccc3c(c2)OCO3)ccc1F [Example E22, 5-((3S,4R)-3-((benzo[d][1,3]dioxol-5-yloxy)methyl)piperidin-4-yl)-2-fluoro-N-(pyridin-4-ylmethyl)benzamide] | – | > 100 µM | –
O=C(NCCc1ccccn1)c1cc([C@@H]2CCNC[C@H]2COc2ccc3c(c2)OCO3)ccc1F [Example E23, 5-((3S,4R)-3-((benzo[d][1,3]dioxol-5-yloxy)methyl)piperidin-4-yl)-2-fluoro-N-(2-(pyridin-2-yl)ethyl)benzamide] | – | > 100 µM | –
O=C(NCCc1ccncc1)c1cc([C@@H]2CCNC[C@H]2COc2ccc3c(c2)OCO3)ccc1F [Example E24, 5-((3S,4R)-3-((benzo[d][1,3]dioxol-5-yloxy)methyl)piperidin-4-yl)-2-fluoro-N-(2-(pyridin-4-yl)ethyl)benzamide] | – | > 100 µM | –
O=C(NCCc1cccnc1)c1cc([C@@H]2CCNC[C@H]2COc2ccc3c(c2)OCO3)ccc1F [Example E25, 5-((3S,4R)-3-((benzo[d][1,3]dioxol-5-yloxy)methyl)piperidin-4-yl)-2-fluoro-N-(2-(pyridin-3-yl)ethyl)benzamide] | – | > 100 µM | –
O=C(NCCc1c[nH]cn1)c1cc([C@@H]2CCNC[C@H]2COc2ccc3c(c2)OCO3)ccc1F [Example E28, N-(2-(1H-imidazol-4-yl)ethyl)-5-((3S,4R)-3-((benzo[d][1,3]dioxol-5-yloxy)methyl)piperidin-4-yl)-2-fluorobenzamide] | – | > 100 µM | –

Second part, the compound after the results:

IC50 (GRK1) | IC50 (GRK5) | IC50 (GRK2) | SMILES
> 100 µM | > 100 µM | 2.53 µM | O=C(Cc1cc([C@@H]2CCNC[C@H]2COc2ccc3c(c2)OCO3)ccc1F)NCc1c(F)cccc1F [Example E01, 2-(5-((3S,4R)-3-((benzo[d][1,3]dioxol-5-yloxy)methyl)piperidin-4-yl)-2-fluorophenyl)-N-(2,6-difluorobenzyl)acetamide hydrochloride]
95.3 µM | > 100 µM | 0.42 µM | O=C(Cc1cc([C@@H]2CCNC[C@H]2COc2ccc3c(c2)OCO3)ccc1F)NCCc1c(F)cccc1F [Example E02, 2-(5-((3S,4R)-3-((benzo[d][1,3]dioxol-5-yloxy)methyl)piperidin-4-yl)-2-fluorophenyl)-N-(2,6-difluorophenethyl)acetamide hydrochloride]
– | > 100 µM | 3.65 µM | O=C(Cc1cc([C@@H]2CCNC[C@H]2COc2ccc3c(c2)OCO3)ccc1F)NCCc1ccccn1 [Example E03, 2-(5-((3S,4R)-3-((benzo[d][1,3]dioxol-5-yloxy)methyl)piperidin-4-yl)-2-fluorophenyl)-N-(2-(pyridin-2-yl)ethyl)acetamide hydrochloride]
– | > 100 µM | 0.62 µM | O=C(Cc1cc([C@@H]2CCNC[C@H]2COc2ccc3c(c2)OCO3)ccc1F)NCCc1cn[nH]c1 [Example E04, N-(2-(1H-pyrazol-4-yl)ethyl)-2-(5-((3S,4R)-3-((benzo[d][1,3]dioxol-5-yloxy)methyl)piperidin-4-yl)-2-fluorophenyl)acetamide hydrochloride]
59.2 µM | > 100 µM | 3.61 µM | O=C(Cc1cc([C@@H]2CCNC[C@H]2COc2ccc3c(c2)OCO3)ccc1F)NCc1ccccn1 [Example E05, 2-(5-((3S,4R)-3-((benzo[d][1,3]dioxol-5-yloxy)methyl)piperidin-4-yl)-2-fluorophenyl)-N-(pyridin-2-ylmethyl)acetamide hydrochloride]
– | 15.2 µM | 0.44 µM | O=C(NCc1ccccn1)c1cc([C@@H]2CCNC[C@H]2COc2ccc3c(c2)OCO3)ccc1F [Example E07, 5-((3S,4R)-3-((benzo[d][1,3]dioxol-5-yloxy)methyl)piperidin-4-yl)-2-fluoro-N-(pyridin-2-ylmethyl)benzamide hydrochloride]
– | 61.9 µM | 12.5 µM | O=C(NCc1ccccc1C(F)(F)F)c1cc([C@@H]2CCNC[C@H]2COc2ccc3c(c2)OCO3)ccc1F [Example E10, 5-((3S,4R)-3-((benzo[d][1,3]dioxol-5-yloxy)methyl)piperidin-4-yl)-2-fluoro-N-(2-(trifluoromethyl)benzyl)benzamide hydrochloride]
– | 45.5 µM | – | O=C(NCc1c(F)cccc1F)c1cc([C@@H]2CCNC[C@H]2COc2ccc3c(c2)OCO3)ccc1F [Example E11, 5-((3S,4R)-3-((benzo[d][1,3]dioxol-5-yloxy)methyl)piperidin-4-yl)-N-(2,6-difluorobenzyl)-2-fluorobenzamide hydrochloride]
11.3 µM | 56.4 µM | 1.01 µM | Cc1cccc(C)c1CNC(=O)c1cc([C@@H]2CCNC[C@H]2COc2ccc3c(c2)OCO3)ccc1F [Example E13, 5-((3S,4R)-3-((benzo[d][1,3]dioxol-5-yloxy)methyl)piperidin-4-yl)-N-(2,6-dimethylbenzyl)-2-fluorobenzamide hydrochloride]
23.6 µM | 41.1 µM | 0.77 µM | O=C(NCc1c(C(F)(F)F)cccc1C(F)(F)F)c1cc([C@@H]2CCNC[C@H]2COc2ccc3c(c2)OCO3)ccc1F [Example E14, 5-((3S,4R)-3-((benzo[d][1,3]dioxol-5-yloxy)methyl)piperidin-4-yl)-N-(2,6-bis(trifluoromethyl)benzyl)-2-fluorobenzamide hydrochloride]
– | 84.3 µM | – | O=C(NCc1ccccc1)c1cc([C@@H]2CCNC[C@H]2COc2ccc3c(c2)OCO3)ccc1F [Example E19, 5-((3S,4R)-3-((benzo[d][1,3]dioxol-5-yloxy)methyl)piperidin-4-yl)-N-benzyl-2-fluorobenzamide]
– | 76.3 µM | – | O=C(NCc1cccnc1)c1cc([C@@H]2CCNC[C@H]2COc2ccc3c(c2)OCO3)ccc1F [Example E21, 5-((3S,4R)-3-((benzo[d][1,3]dioxol-5-yloxy)methyl)piperidin-4-yl)-2-fluoro-N-(pyridin-3-ylmethyl)benzamide]
– | 14.8 µM | – | O=C(NCc1ncc[nH]1)c1cc([C@@H]2CCNC[C@H]2COc2ccc3c(c2)OCO3)ccc1F [Example E27, N-((1H-imidazol-2-yl)methyl)-5-((3S,4R)-3-((benzo[d][1,3]dioxol-5-yloxy)methyl)piperidin-4-yl)-2-fluorobenzamide]
